The values that follow come from patent US6159953A, “Anti-malarial composition and method of use” (Catholic University of America, priority 1992, dated 2000).

The test system of this experiment is IMR-90 human lung fibroblast cells. Briefly: Toxicity to cultured IMR-90 cells, number of viable cells. Format: cell-based. The source says:
2. Effects of orotate analogues on cell viability and the ability to synthesize nucleic acids from radioactive precursors, and the rescuing effects of normal pyrimidine bases or nucleosides or amino acid derivatives such as histidinol, can be tested in human-derived tissue culture cell lines. Human HT-1080 human sarcoma cells [Rusheed, S., et al., Cancer, 33:1027-30 (1974)], human diploid IMR-90 cells [Nichols, W. W., et al., Science, 196:60-3 (1977)], human cervical […] HeLa S3 cells [Puck, T. T., et al., J. Exp. Med., 103:273-84 (1956)], HL-60 human myeloid leukemia cells [Collins, S. J., et al., Nature, 270:347-9 (1977)], and mouse leukemia L-1210 cells [Moore, G. E., J. Nat. […] The growth medium most suitable for each cell line can be determined by reference to the publications cited above: briefly, HT-1080 cells are maintained in Eagle's Minimal Essential Medium (EMEM) supplemented with 5% fetal bovine serum (FBS) and 2 mM L-glutamine; IMR-90 cells are grown in EMEM supplemented with 10% FBS, 10 mM Hepes buffer, 0.21% NaHCO3, and 2 mM L-glutamine. […]
Toxicity of pyrimidine analogues to cultured human cells is determined as follows. […] Thereafter, the number of cells in each well is determined. […] Cells that grow in suspension (e.g., HL-60 and L-1210 cells) are transferred to centrifuge tubes, pelleted at low speed, washed, and the viability determined as above. […]

Like-named read-outs stand apart in the source and are kept apart here.

Broadly, the IC50 is the concentration at which inhibition is half-maximal. In the case of `O=C(O)c1[nH]c(=O)[nH]c(=O)c1F` [5-fluoro-orotate], the IC50 reads like this: (IMR-90, with 1 mM uridine, read-out: IC50 With 1 mM Uridine) 2.2 µM; (IMR-90, without uridine, read-out: IC50 Without Uridine) 1.1 µM.
